Measurements published in US20240018153A1, “BENZENESULFONAMIDE DERIVATIVES AND USES THEREOF” (2692372 ONTARIO, INC., priority 2020, published 2024).

Columns and labels:
EGFR = EGFR (Homo sapiens (Human), UniProt P00533); assay: HTRF KinEASE-TK kinase assay, EGFR; format: biochemical; settings: 3 h preincubation; for remaining activity at 1 µM: 1 μM compound, read-out: % EGFR Remaining activity vs DMSO (1 μM, 3 h); for remaining activity at 10 µM: 10 μM compound, read-out: % EGFR Remaining activity vs DMSO (10 μM, 3 h)
Protocol: Kinase activity was monitored using a HTRF® KinEASE-TK kit from Cisbio (62TK0PEC). The buffer used was 1× kinase buffer supplemented with 2 mM MnCl2, 5 mM MgCl2, 1 mM TCEP and 100× diluted Supplementary Enzyme Buffer. EGFR was purchased from Promega. […] Reaction with substrate was then initiated by adding biotinylated substrate and ATP. […] After 60 min of incubation, the fluorescence emission was measured at 620 nm and 665 nm. The ratio of Em 665 nm to Em 620 nm was proportional to the amount of substrate phosphorylated by the kinase.
For initial screening, enzymes were pre incubated with compounds at 2 different concentrations (1 and 10 uM final) and 0.5% DMSO.

BTK [1] = molecular target: T1, BTK (Homo sapiens (Human), UniProt Q06187); assay: HTRF KinEASE-TK kinase assay, BTK; format: biochemical; settings: 3 h preincubation; for remaining activity at 1 µM: 1 μM compound, read-out: % BTK Remaining activity vs DMSO (1 μM, 3 h); for remaining activity at 10 µM: 10 μM compound, read-out: % BTK Remaining activity vs DMSO (10 μM, 3 h)
Protocol: Kinase activity was monitored using a HTRF® KinEASE-TK kit from Cisbio (62TK0PEC). For BTK, the 1× kinase buffer was supplemented with 10 mM MnCl2, 5 mM MgCl2, 1 uM ATPγS, 1 mM TCEP and 100 fold diluted Supplementary Enzyme Buffer. BTK was purchased from Promega. […] Reaction with substrate was then initiated by adding biotinylated substrate and ATP and the reaction was allowed to proceed for 45 min. […] After 60 min of incubation, the fluorescence emission was measured at 620 nm and 665 nm. The ratio of Em 665 nm to Em 620 nm was proportional to the amount of substrate phosphorylated by the kinase.

BTK [2] = molecular target: T1, BTK; assay: Ramos RA1 cell lysis and immunoassay, phospho-BTK (Y223) inhibition; format: cell-based; parameters: key: X: BTK bound and autophosphoration of BTK inhibited in cells; settings: RAMOS cells
Protocol: (§1) Ramos RA 1 cells (ATCC) were cultured in RPMI-1640 media (Wisent) supplemented with 10% heat-inactivated FBS and 1% penicillin/streptomycin. Cells were seeded in 6-well plates at 1.71×10^6 cells/well and incubated at 37° C., 5% CO2 for 16 hours. Cells were treated with compound at the indicated concentrations or DMSO alone and incubated at 37° C., 5% CO2 for 24 hours. Cell suspensions were centrifugated at 1,400-1,600 RPM for 5 minutes at room temperature and supernatants were discarded. Cell pellets were resuspended with 1× RIPA buffer (Millipore) and incubated on ice for 15 minutes. Protein lysates were extracted by centrifugating at 20,000 RPM for 20 minutes at 4° C. Proteins were separated and total BTK protein levels were quantified by Simple Western Immunoassay (ProteinSimple) using the 12-230 kDa Jess Separation Module according to the manufacturer's protocol, using a protein concentration of 0.25 μg/μl and antibodies targeting BTK (clone #D3H5, Cell Signalling) and β-Actin (clone #AC-15, Santa Cruz) diluted to 1:400 and 1:10, respectively, where the latter was used as a loading control. An equal ratio of rabbit and mouse HRP-conjugated secondary antibodies was used for detection. BTK protein levels were quantified relative to S-Actin loading levels and subsequently normalized to the DMSO control. Phosphorylated BTK levels were quantified using the Protein Normalization Assay Module for Jess (ProteinSimple) according to the manufacturer's protocol, using a protein concentration of 1.5 μg/μl and an antibody targeting pBTK (Y223) (Cell Signalling) diluted to 1:50. Phosphorylated BTK levels were quantified relative to the Protein Normalization Reagent and subsequently normalized to the DMSO control.

BTK [3] = molecular target: T1, BTK; assay: Ramos RA1 cell lysis and immunoassay, total BTK degradation; format: cell-based; parameters: key to % BTK degradation (RAMOS, 24 h): Y: BTK bound in cells and BTK degradation occurred; concentration or dose not given beside the values; settings: RAMOS cells
Protocol: as §1

BMX = BMX (Homo sapiens (Human), UniProt P51813); assay: HTRF KinEASE-TK kinase assay, BMX; format: biochemical; settings: for remaining activity at 1 µM: 1 uM compound; for remaining activity at 1 µM / remaining activity at 10 µM: 3 h preincubation; for remaining activity at 10 µM: 10 uM compound
Protocol: (§2) Kinase activity was monitored using a HTRF® KinEASE-TK kit from Cisbio (62TK0PEC). […] BMX was purchased from Promega. 0.333 ng/ul BMX (3.03 nM) was preincubated in the absence or presence of inhibitor at room temperature for 3 hours. The reaction with substrate was then initiated by adding biotinylated substrate and ATP. […] Reaction was terminated by adding 31.25 nM SA-XL665 and 100 fold diluted europium labelled antibody (Eu-Ab), diluted in 1× detection buffer that contained EDTA. After 60 min of incubation, the fluorescence emission was measured at 620 nm and 665 nm. The ratio of Em 665 nm to Em 620 nm was proportional to the amount of substrate phosphorylated by the kinase.

JAK3 = JAK3 (Homo sapiens (Human), UniProt P52333); assay: HTRF KinEASE-TK kinase assay, JAK3; format: biochemical; settings: for remaining activity at 1 µM: read-out: % JAK3 Remaining activity vs DMSO (1 μM, 3 h); for remaining activity at 10 µM: read-out: % JAK3 Remaining activity vs DMSO (10 μM, 3 h); for IC50: dose response
Protocol: as §2, with “JAK-3” for “BMX”, “0.0133” for “0.333”, “JAK3 (0.21” for “BMX (3.03”, “Reaction” for “The reaction”, “The reaction” for “Reaction”

FGFR4 = FGFR4 (Homo sapiens (Human), UniProt P22455); assay: HTRF KinEASE-TK kinase assay, FGFR4; format: biochemical; settings: for remaining activity at 1 µM: read-out: % FGFR4 Remaining activity vs DMSO (1 μM, 3 h); for remaining activity at 10 µM: read-out: % FGFR4 Remaining activity vs DMSO (10 μM, 3 h)
Protocol: as §2, with “FGFR-4” for “BMX”, “FGFR4 (5.12” for “BMX (3.03”, “Reaction” for “The reaction”, “The reaction” for “Reaction”

RIPK2 = RIPK2 (Homo sapiens (Human), UniProt O43353); assay: In vitro RIPK2 inhibition; format: biochemical; settings: for remaining activity at 1 µM: read-out: % RIPK2 Remaining activity vs DMSO (1 μM, 3 h); for remaining activity at 10 µM: read-out: % RIPK2 Remaining activity vs DMSO (10 μM, 3 h)
RIPK2, sequence (O43353 whole entry, species assumed): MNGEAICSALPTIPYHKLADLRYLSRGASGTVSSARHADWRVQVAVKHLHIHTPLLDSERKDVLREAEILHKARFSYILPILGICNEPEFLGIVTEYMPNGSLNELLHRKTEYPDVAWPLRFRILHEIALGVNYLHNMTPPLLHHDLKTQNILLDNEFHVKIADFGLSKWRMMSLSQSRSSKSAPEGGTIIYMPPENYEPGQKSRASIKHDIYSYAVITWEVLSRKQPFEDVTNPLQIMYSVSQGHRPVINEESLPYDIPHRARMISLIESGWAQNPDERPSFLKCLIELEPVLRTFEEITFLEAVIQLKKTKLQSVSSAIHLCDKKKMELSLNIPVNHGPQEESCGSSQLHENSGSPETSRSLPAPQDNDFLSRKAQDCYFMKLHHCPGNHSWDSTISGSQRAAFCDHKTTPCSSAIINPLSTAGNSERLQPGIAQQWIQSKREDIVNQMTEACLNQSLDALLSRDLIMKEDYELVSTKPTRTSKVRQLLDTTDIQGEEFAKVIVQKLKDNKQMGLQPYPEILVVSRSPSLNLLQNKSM

FGFR4, sequence (P22455 22-802): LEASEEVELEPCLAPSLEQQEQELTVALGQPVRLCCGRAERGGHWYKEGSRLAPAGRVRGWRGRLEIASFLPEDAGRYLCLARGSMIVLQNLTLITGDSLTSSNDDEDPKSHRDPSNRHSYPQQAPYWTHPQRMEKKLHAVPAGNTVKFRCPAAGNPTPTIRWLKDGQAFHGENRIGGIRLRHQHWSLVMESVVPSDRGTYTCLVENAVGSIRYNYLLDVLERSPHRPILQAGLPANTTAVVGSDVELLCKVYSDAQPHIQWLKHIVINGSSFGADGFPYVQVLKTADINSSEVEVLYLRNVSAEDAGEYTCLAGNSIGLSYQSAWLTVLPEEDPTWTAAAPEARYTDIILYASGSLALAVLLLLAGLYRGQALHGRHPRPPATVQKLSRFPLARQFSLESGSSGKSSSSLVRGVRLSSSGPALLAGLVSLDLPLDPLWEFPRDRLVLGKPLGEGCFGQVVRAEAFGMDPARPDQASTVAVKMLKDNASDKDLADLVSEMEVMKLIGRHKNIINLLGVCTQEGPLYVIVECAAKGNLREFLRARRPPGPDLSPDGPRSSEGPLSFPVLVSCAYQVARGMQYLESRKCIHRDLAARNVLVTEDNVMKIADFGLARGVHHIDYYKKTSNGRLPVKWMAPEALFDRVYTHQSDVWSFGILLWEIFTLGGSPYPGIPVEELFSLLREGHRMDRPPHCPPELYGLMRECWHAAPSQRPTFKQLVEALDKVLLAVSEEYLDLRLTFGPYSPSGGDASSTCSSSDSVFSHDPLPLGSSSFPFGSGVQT
BMX, sequence (P51813 whole entry): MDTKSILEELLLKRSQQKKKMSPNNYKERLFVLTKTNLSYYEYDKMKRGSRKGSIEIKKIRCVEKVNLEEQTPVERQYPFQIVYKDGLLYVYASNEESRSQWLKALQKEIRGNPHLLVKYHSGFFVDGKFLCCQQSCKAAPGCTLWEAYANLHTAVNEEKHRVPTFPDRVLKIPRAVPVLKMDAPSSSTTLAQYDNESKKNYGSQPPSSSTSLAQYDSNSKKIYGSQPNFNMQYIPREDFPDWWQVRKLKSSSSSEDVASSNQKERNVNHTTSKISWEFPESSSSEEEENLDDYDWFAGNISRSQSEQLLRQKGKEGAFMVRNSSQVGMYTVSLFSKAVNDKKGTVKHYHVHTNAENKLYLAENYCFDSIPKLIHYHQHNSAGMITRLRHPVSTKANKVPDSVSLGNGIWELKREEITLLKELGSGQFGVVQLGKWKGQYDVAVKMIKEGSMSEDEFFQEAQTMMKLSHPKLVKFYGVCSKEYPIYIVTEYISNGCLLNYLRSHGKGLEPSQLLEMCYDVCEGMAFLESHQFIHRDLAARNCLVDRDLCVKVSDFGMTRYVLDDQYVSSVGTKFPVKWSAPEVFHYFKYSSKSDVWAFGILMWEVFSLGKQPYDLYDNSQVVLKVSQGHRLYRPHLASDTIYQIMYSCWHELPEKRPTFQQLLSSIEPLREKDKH
JAK3, sequence (P52333 781-1124): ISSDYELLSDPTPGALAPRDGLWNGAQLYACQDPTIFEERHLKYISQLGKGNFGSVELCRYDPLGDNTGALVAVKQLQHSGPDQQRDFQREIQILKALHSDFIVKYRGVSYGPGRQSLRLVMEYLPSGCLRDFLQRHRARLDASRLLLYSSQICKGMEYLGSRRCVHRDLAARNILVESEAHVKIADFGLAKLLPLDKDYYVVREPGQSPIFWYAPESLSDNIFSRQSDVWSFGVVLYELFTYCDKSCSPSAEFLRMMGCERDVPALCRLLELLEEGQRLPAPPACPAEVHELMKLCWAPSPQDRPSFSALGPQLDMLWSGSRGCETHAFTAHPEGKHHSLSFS
EGFR, sequence (P00533 25-1210): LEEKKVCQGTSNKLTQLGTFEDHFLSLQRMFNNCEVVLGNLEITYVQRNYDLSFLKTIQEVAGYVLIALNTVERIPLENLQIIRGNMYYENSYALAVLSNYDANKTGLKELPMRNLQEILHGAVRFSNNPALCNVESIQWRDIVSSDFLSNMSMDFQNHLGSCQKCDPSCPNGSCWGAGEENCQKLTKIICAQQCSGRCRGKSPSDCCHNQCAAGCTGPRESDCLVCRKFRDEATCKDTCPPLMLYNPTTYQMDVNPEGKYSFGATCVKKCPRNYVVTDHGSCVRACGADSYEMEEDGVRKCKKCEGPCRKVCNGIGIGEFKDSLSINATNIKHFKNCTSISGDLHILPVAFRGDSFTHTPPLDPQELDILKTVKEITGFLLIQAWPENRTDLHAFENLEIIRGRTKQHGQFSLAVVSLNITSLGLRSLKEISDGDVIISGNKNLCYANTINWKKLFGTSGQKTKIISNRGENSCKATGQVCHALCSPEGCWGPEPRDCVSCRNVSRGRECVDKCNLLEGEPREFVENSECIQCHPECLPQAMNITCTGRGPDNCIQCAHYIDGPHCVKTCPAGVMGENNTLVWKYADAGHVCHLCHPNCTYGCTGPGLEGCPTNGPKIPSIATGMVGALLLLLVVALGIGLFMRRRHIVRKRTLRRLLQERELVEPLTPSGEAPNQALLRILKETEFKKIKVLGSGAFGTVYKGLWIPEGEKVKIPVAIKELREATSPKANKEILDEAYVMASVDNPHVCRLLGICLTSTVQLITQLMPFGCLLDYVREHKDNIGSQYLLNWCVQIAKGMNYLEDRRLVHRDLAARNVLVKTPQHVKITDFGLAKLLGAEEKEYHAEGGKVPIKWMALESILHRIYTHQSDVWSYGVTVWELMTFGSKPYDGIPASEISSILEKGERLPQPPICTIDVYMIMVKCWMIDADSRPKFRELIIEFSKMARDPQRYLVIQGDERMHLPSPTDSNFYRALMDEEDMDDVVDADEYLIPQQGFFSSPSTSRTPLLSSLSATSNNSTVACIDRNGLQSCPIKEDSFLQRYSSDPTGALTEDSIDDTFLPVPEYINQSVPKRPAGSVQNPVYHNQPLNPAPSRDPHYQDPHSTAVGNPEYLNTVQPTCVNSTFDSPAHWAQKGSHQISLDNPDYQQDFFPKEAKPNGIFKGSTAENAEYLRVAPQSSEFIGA
T1 sequence (Q06187 whole entry): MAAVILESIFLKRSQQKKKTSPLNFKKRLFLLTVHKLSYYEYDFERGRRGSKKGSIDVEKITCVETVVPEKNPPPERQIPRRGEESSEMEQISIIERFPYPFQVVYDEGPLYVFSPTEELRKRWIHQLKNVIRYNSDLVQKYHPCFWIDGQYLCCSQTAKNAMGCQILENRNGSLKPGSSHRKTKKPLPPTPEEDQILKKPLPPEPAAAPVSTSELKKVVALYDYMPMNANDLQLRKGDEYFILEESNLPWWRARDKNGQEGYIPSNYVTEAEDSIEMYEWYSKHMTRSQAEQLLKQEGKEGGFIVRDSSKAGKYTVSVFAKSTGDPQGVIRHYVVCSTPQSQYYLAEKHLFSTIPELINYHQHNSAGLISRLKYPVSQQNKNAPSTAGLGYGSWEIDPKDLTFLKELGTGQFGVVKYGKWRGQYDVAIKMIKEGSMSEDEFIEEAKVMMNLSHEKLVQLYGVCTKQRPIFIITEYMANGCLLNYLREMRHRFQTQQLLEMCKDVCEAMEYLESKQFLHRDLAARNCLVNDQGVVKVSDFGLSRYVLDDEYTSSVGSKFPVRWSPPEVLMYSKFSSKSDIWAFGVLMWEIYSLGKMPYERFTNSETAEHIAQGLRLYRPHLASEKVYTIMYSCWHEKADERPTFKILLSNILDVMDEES

Row | Structure (SMILES) | remaining activity at 1 µM (EGFR) [%] | remaining activity at 10 µM (EGFR) [%] | remaining activity at 1 µM (BTK [1]) [%] | remaining activity at 10 µM (BTK [1]) [%] | pBTK inhibition (RAMOS, 24 h) (BTK [2]; compound concentration 1 μM) | % BTK degradation (RAMOS, 24 h) (BTK [3]) | remaining activity at 1 µM (BMX) [%] | remaining activity at 10 µM (BMX) [%] | remaining activity at 1 µM (JAK3) [%] | remaining activity at 10 µM (JAK3) [%] | remaining activity at 1 µM (FGFR4) [%] | remaining activity at 10 µM (FGFR4) [%] | remaining activity at 1 µM (RIPK2) [%] | remaining activity at 10 µM (RIPK2) [%] | pBTK inhibition (RAMOS, 24 h) (BTK [2]; compound concentration 5 μM) | IC50 (JAK3) [nM] | IC50 (FGFR4; dose response) [nM] | IC50 (BMX; dose response) [nM]
1 | Nc1ncnc2c1c(-c1ccc(Oc3ccccc3)cc1)nn2[C@@H]1CCCN(C(=O)c2c(F)c(F)c(F)c(F)c2S(N)(=O)=O)C1 [Compound I-35, (R)-2-(3-(4-amino-3-(4-phenoxyphenyl)-1H-pyrazolo[3,4-d]pyrimidin-1-yl)piperidine-1-carbonyl)-3,4,5,6-tetrafluorobenzenesulfonamide] | > 90 | > 90 | < 50 | < 50 | X | Y | < 50 | < 50 | > 90 | > 90 | 50 to 90 | < 50 | > 90 | > 90 |  |  |  | 
2 | CS(=O)(=O)c1c(F)c(F)c(F)c(F)c1C(=O)n1ccc2c(N)ncnc21 [Compound I-49, (4-amino-7H-pyrrolo[2,3-d]pyrimidin-7-yl)(2,3,4,5-tetrafluoro-6-(methylsulfonyl)phenyl)methanone] | > 90 | > 90 | 50 to 90 | < 50 |  | Y | 50 to 90 | < 50 | > 90 | > 90 | 50 to 90 | < 50 | < 50 | < 50 |  |  |  | 
3 | COCCOc1ccc(Nc2ncc(F)c(Nc3cccc(NS(=O)(=O)c4c(F)c(F)c(F)c(F)c4OC(F)F)c3)n2)cc1 [Compound I-54, 2-(difluoromethoxy)-3,4,5,6-tetrafluoro-N-(3-((5-fluoro-2-((4-(2-methoxyethoxy)phenyl)amino)pyrimidin-4-yl)amino)phenyl)benzenesulfonamide] | > 90 | 50 to 90 | < 50 | < 50 |  |  | < 50 | < 50 | < 50 | < 50 | < 50 | < 50 |  |  | X | > 1000 | < 1000 | 
4 | COCCOc1ccc(Nc2ncc(F)c(NCCCNS(=O)(=O)c3c(F)c(F)c(F)c(F)c3C(F)F)n2)cc1 [Compound I-52, 2-(difluoromethyl)-3,4,5,6-tetrafluoro-N-(3-((5-fluoro-2-((4-(2-methoxyethoxy)phenyl)amino)pyrimidin-4-yl)amino)propyl)benzenesulfonamide] | > 90 | 50 to 90 | < 50 | < 50 | X |  | < 50 | < 50 | < 50 | < 50 | > 90 | < 50 |  |  |  | < 1000 |  | 
5 | Nc1ncnc2c1c(-c1ccc(Oc3ccccc3)cc1)nn2CCNS(=O)(=O)c1c(F)c(F)c(F)c(F)c1OCF [Compound I-25, N-(2-(4-amino-3-(4-phenoxyphenyl)-1H-pyrazolo[3,4-d]pyrimidin-1-yl)ethyl)-2,3,4,5-tetrafluoro-6-(fluoromethoxy)benzenesulfonamide] | > 90 | > 90 | < 50 | < 50 | X |  | < 50 | < 50 | > 90 | 50 to 90 | 50 to 90 | < 50 |  |  |  |  |  | < 1000
